Measured values from patent publication US20130116277A1, “ALDO-KETO REDUCTASE SUBFAMILY 1C3 (AKR1C3) INHIBITORS” (priority 2007, published 2013).
Where “and” joins values, the source holds several entries; their conditions need not be identical. Equal entries are not always repeated. Where two headings read alike, the source gives them in different places.

Key:
AKR1C3 [1] = molecular target: T1, AKR1C3 (Homo sapiens, UniProt P42330); assay: cell-based
T1 sequence (P42330 1-323): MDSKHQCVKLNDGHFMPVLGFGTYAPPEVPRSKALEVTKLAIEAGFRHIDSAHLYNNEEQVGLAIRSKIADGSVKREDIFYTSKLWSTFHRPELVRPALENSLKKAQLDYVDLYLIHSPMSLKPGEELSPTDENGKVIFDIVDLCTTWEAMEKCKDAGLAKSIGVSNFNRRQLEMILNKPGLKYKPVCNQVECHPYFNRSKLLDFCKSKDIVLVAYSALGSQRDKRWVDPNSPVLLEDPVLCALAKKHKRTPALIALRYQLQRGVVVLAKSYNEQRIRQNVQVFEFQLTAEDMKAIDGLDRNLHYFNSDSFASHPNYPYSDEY
Protocol: AKR1C3 expression was checked by Western blot to ensure that the cells over-express AKR1C3. […] Medium was changed to RPMI+1% csFBS without phenol red and maintained in this medium for 3 days to reduce basal hormone levels. […] The data was plotted in SigmaPlot (Systat Software Inc.) and the IC50 values for inhibitors were calculated.
HEK-293 cells stably transfected with AKR1C3 were plated in 24 well plates and were maintained in RPMI+1% csFBS without phenol red for 2 days to reduce the basal steroid levels.

AKR1C3 [2] = molecular target: T1, AKR1C3; assay: Purified AKR1C3 enzyme assay, [14C]-A'dione to testosterone, TLC based; format: biochemical; design: GST (N); made in house; host or cells: bacterial culture, IPTG induced (E. coli BL21-DE3 is named only for the crystallography preparation)
Protocol: Perkin Elmer; […] American Radiolabeled Chemicals, St. Louis, Mo.). The reaction was stopped by the addition of 400 μl ethyl acetate, vortexed, and spun for […] at 2000 rpm. The upper layer was transferred to a new tube and air dried. The pellet was resuspended in 25 μl of methanol, spotted on TLC plates and fractionated in TLC chamber with 3:1 chloroform:ethyl acetate. Once the mobile phase reached the top, the plates were dried and exposed to a phosphoimager screen overnight. […] Perkin Elmer) was incubated at 37° C. for 60 min. The reaction was stopped by the addition of 400 μl ethyl acetate, vortexed, and spun for […] at 2000 rpm. The upper layer was transferred to a new tube and air dried. The pellet was resuspended in 25 μl of methanol, spotted on TLC plates and fractionated in TLC chamber with 3:1 chloroform:ethyl acetate. Once the mobile phase reached the top, the plates were dried and exposed to a phosphoimager screen overnight.

ER-beta = molecular target: T2, ER-beta (Homo sapiens, UniProt Q92731); assay: ER-beta transactivation (ERE-LUC luciferase) in HEK-293 cells; format: cell-based; settings: for EC50: agonist mode, drug alone, read-out: Agonist ER-β; for IC50: in combination with estradiol, read-out: Antagonist ER-β;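 as to all read-outs here: HEK-293 cells transiently transfected with an ER-β expression plasmid and ERE-LUC reporter, firefly luciferase read-out normalized to co-transfected Renilla luciferase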
T2 construct: expressed in transfected cells; host or cells: HEK-293
T2 sequence (Q92731 whole entry, species assumed): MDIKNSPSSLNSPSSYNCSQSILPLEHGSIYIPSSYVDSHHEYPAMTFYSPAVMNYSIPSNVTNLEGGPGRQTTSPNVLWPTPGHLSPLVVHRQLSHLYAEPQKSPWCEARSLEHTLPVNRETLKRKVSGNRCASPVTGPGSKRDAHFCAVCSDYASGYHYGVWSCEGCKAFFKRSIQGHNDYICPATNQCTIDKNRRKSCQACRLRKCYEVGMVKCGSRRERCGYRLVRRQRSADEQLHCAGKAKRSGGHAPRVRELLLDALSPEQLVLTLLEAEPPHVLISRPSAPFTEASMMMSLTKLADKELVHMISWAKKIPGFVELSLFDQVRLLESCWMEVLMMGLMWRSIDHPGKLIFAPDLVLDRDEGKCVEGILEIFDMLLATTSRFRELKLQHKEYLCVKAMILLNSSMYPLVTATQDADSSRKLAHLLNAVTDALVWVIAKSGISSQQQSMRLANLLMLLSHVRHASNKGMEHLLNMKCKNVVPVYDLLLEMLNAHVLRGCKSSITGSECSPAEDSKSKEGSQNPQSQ

ER-alpha = molecular target: T3, ER-alpha (Homo sapiens, UniProt P03372); assay: ER-alpha transactivation (ERE-LUC luciferase) in HEK-293 cells; format: cell-based; settings: for IC50: antagonist mode, in combination with estradiol, read-out: Antagonist ER-α; for EC50: drug alone, read-out: Agonist ER-α;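 as to all read-outs here: HEK-293 cells co-transfected with an ER-alpha expression plasmid, an ERE-driven firefly luciferase reporter and a CMV Renilla control, with the firefly signal normalized to Renilla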
T3 construct: expressed in transfected cells; host or cells: HEK-293
T3 sequence (P03372 1-595): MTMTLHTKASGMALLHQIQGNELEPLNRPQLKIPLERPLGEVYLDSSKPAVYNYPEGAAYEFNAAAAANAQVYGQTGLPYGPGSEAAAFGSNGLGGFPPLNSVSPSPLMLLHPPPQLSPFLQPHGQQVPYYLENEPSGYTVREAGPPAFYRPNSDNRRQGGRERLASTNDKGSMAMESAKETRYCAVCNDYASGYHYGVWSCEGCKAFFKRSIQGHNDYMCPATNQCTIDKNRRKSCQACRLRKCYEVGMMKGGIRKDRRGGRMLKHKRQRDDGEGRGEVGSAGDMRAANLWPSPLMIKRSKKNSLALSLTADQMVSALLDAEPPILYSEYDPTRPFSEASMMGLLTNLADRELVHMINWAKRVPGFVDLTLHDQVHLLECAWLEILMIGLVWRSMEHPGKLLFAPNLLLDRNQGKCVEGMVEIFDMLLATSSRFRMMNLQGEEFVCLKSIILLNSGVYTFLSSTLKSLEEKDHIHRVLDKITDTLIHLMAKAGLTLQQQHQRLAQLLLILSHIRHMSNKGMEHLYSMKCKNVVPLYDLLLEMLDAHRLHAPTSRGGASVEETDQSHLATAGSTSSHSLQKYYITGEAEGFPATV

ER-α = molecular target: T4, ER-α (Homo sapiens, UniProt P03372); assay: ER-α ligand binding domain competitive binding with [3H]Estradiol
T4 sequence (P03372 311-547 limits assumed): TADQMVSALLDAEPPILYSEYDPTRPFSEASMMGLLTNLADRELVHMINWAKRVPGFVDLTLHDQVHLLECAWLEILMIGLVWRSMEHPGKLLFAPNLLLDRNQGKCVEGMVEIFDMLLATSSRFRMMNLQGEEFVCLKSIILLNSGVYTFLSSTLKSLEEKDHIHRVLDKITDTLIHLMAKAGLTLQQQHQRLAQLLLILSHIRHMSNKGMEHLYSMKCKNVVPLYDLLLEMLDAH

ER-β = ER-β (Homo sapiens, UniProt Q92731); assay: ER-β ligand binding domain competitive binding with [3H]Estradiol
Chain of ER-β (Q92731 264-498 limits assumed, species assumed): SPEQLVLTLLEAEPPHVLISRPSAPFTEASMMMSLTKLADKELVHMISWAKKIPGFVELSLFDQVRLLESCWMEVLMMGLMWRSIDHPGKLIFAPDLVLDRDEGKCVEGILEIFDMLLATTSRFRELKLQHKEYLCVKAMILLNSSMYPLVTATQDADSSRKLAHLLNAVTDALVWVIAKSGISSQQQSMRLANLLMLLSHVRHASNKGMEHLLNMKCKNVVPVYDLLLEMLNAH

[3] = Liver microsome incubation (HLM Phase I and Phase I + II), LC-MS/MS; format: in vitro ADME, human; settings: for microsomal CLint: human, human liver microsomes
Protocol: Stock solutions of prespective AKR1C3 inhibitors were prepared in DMSO at 5 mM and were incubated with liver microsomes (0.1 mg/mL). Incubations were conducted at 37° C. in a shaking water bath for 10 minutes (microsomes). Incubation durations were selected based on time course study (microsomes) or published literature (recombinant enzymes). Prepared samples were analyzed using LC-MS/MS.

[4] = 10 μM inhibitor, purified AKR1C3 TLC based enzyme assay, read-out: AKR1C3 inhibition at 10 μM
[5] = read-out: % inhibition from control HSD-5 (10 uM)
[6] = HLM Phase I + II, read-out: HLM Phase I + II CLint
[7] = HLM Phase I, read-out: HLM Phase I CLint

Compound | IC50 (AKR1C3 [1]) [µM] | inhibition at 10 µM (AKR1C3 [2]; [4]) [%] | inhibition at 10 µM (AKR1C3 [2]; [5]) [%] | EC50 (ER-beta) [µM] | Antagonist ER-β, % of E2 (ER-beta; antagonist mode, @1000 nM) | Agonist ER-α, % of E2 (ER-alpha; agonist mode, @10k nM) | IC50 (ER-alpha) | Ki (ER-α) [nM] | Ki (ER-β) [nM] | HLM Phase I CLint ([3]; HLM Phase I) [µL/min/mg] | HLM Phase I T-1/2 ([3]; HLM Phase I) | HLM Phase I + II T-1/2 ([3]; HLM Phase I + II) [min] | microsomal CLint [3, 6] [µL/min/mg] | microsomal CLint [3, 7] [µL/min/mg] | IC50 (ER-beta; antagonist mode) | EC50 (ER-alpha; agonist mode) [µM]
N#Cc1cc(O)cc2c(-c3cc(F)c(F)c(F)c3)cn(-c3ccc(O)cc3)c(=O)c12 [Compound 85, 6-hydroxy-2-(4-hydroxyphenyl)-1-oxo-4-(3,4,5-trifluorophenyl)-1,2-dihydroisoquinoline-8-carbonitrile] | 0.141 | 86 | 86 | > 10 | 59.7% of E2 @1000 nM | 36.5% of E2 @10k nM | > 10 µM |  |  |  |  |  |  |  |  | 
C[C@@H]1O[C@@H](OC[C@H]2O[C@@H](Oc3c(-c4ccc(O)c(O)c4)oc4cc(O)cc(O)c4c3=O)[C@H](O)[C@@H](O)[C@@H]2O)[C@H](O)[C@H](O)[C@H]1O [Rutin, reference compound] | > 10 |  |  |  |  |  |  |  |  |  |  |  |  |  |  | 
COc1cc(C=CC(=O)O)cc(OC)c1OC [3,4,5 trimethoxy cinnamic acid, reference compound] | > 10 |  |  |  |  |  |  |  |  |  |  |  |  |  |  | 
O=C(O)/C=C/c1cn(-c2ccc(O)cc2)c(=O)c2ccc(O)cc12 [Compound 15k] |  |  | 12 |  |  |  |  | > 151 | > 220 |  |  |  |  |  |  | 
O=c1c2ccc(O)cc2c(-c2ccc(O)cc2)cn1-c1ccc(CBr)cc1 [Compound 11, 2-(4-bromomethyl)phenyl-6-hydroxy-4-(4-hydroxyphenyl)isoquinolin-1(2H)-one] | 5.18 | 55 | 55 | > 10 |  |  | > 10 µM |  | > 2200 | 119 | 8.23 min and 5.90 min | 5.0 | 138 | 84.1 | > 10 µM | > 10
C/C=C/c1cn(-c2ccc(O)cc2)c(=O)c2c(O)cc(O)cc12 [Compound 15i] |  |  | 10 | > 10 |  |  | 1.97 µM and 1.79 µM |  | 1.66 |  |  |  |  |  | 0.0322 µM and 0.0663 µM | > 10
CCOC(=O)/C=C/c1cn(-c2ccc(OC)cc2)c(=O)c2c(O)cc(OC)cc12 [Compound 15j] |  |  | 10 | > 10 |  |  | > 10 µM | > 1510 | > 2200 |  |  |  |  |  | > 10 µM | > 10
O=c1c2c(O)cc(O)cc2c(-c2ccccc2)cn1-c1ccc(O)cc1 [Compound 15h, 6,8-dihydroxy-2-(4-hydroxyphenyl)-4-phenylisoquinolin-1(2H)-one] | 6.64 |  | 0 | > 10 |  |  | 2.03 µM |  | 3.03 |  | 87.1 min | 11.4 | 60.7 | 7.9 | 0.0534 µM | > 10
